Measurements published in ChEMBL document CHEMBL1201862, “PubChem BioAssay data set” (2004).
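1) Cells in 96-well plates. 2) Compound, 48 h, 5 concentrations. 3) Linear interpolation between surrounding doses. 4) Unreached endpoint = highest concentration. GI50 is the concentration that inhibits growth by half.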 Active and inactive are the calls of the source. No stated cut-off is given here; in the data, active = GI50 up to about 1.1 µM and inactive = higher.

How the values were obtained:
Test in all cases: growth of human tumour cells (NCI), 48 h
SK-OV-3 = test system: SK-OV-3
M14 = test system: M14
NCI-H23 = test system: NCI-H23
IGROV-1 = test system: IGROV-1
OVCAR-5 = test system: OVCAR-5
MDA-MB-231 = test system: MDA-MB-231
MOLT-4 = test system: MOLT-4
A549 = test system: A549
CAKI-1 = test system: CAKI-1
KM12 = test system: KM12
EKVX = test system: EKVX
SK-MEL-2 = test system: SK-MEL-2
NCI-H226 = test system: NCI-H226
HL-60 = test system: HL-60
U-251 = test system: U-251
COLO 205 = test system: COLO 205
HCC 2998 = test system: HCC 2998
HCT-116 = test system: HCT-116
MDA-MB-435 = test system: MDA-MB-435
K562 = test system: K562

| Structure (SMILES) | GI50 (SK-OV-3) | GI50 (M14) | GI50 (NCI-H23) | GI50 (IGROV-1) | GI50 (OVCAR-5) | GI50 (MDA-MB-231) | GI50 (MOLT-4) | GI50 (A549) | GI50 (CAKI-1) | GI50 (KM12) | GI50 (EKVX) | GI50 (SK-MEL-2) | GI50 (NCI-H226) | GI50 (HL-60) | GI50 (U-251) | GI50 (COLO 205) | GI50 (HCC 2998) | GI50 (HCT-116) | GI50 (MDA-MB-435) | GI50 (K562) |
| --- | --- | --- | --- | --- | --- | --- | --- | --- | --- | --- | --- | --- | --- | --- | --- | --- | --- | --- | --- | --- |
| Nc1nc(N)c(CCCCc2ccccc2)c(N)n1 | > 100 µM (inactive) | > 100 µM (inactive) | > 100 µM (inactive) | > 100 µM (inactive) | > 100 µM (inactive) | > 100 µM (inactive) | > 100 µM (inactive) | > 100 µM (inactive) | > 100 µM (inactive) | > 100 µM (inactive) | > 42.8 µM (inactive) | > 100 µM (inactive) | > 100 µM (inactive) | > 100 µM (inactive) | > 100 µM (inactive) | > 100 µM (inactive) | > 100 µM (inactive) | > 100 µM (inactive) | > 100 µM (inactive) | > 100 µM (inactive) |
| CC1=NN(c2nc(N)nc(/C(C#N)=C\c3ccc(-c4ccc([N+](=O)[O-])cc4)o3)n2)C(C)(C)C1 | > 100 µM (inactive) | > 100 µM (inactive) | > 100 µM (inactive) | > 100 µM (inactive) | > 100 µM (inactive) | 27.5 µM (inactive) | > 100 µM (inactive) | > 100 µM (inactive) | > 100 µM (inactive) | > 100 µM (inactive) | > 100 µM (inactive) | > 100 µM (inactive) | > 100 µM (inactive) | 17.1 µM (inactive) | 39.5 µM (inactive) | > 100 µM (inactive) | > 100 µM (inactive) | > 100 µM (inactive) | > 100 µM (inactive) | > 100 µM (inactive) |
| COc1cc2ncnc(Nc3cccc(Br)c3)c2cc1OC | 0.284 µM (active) | 3.79 µM (inactive) | 12.5 µM (inactive) | 2.02 µM (inactive) | 8.13 µM (inactive) | 5.61 µM (inactive) | 16.6 µM (inactive) | 7.6 µM (inactive) | 1.37 µM (inactive) | 2.7 µM (inactive) | 0.316 µM (active) | 3.14 µM (inactive) | 3.25 µM (inactive) | > 28.8 µM (inactive) | 7.06 µM (inactive) | 4.43 µM (inactive) | 3.26 µM (inactive) | 14.4 µM (inactive) | 7.48 µM (inactive) | 15.9 µM (inactive) |
| CC(=N\N)/C(C)=N/N=C(C)/C(C)=N/N=C(C)/C(C)=N/N=C(C)/C(C)=N/N | > 100 µM (inactive) | > 100 µM (inactive) | 66.8 µM (inactive) | > 100 µM (inactive) | > 100 µM (inactive) | > 100 µM (inactive) | 20.9 µM (inactive) | > 100 µM (inactive) | > 100 µM (inactive) | > 100 µM (inactive) | > 100 µM (inactive) | > 100 µM (inactive) | > 100 µM (inactive) | > 100 µM (inactive) | > 100 µM (inactive) | > 100 µM (inactive) | > 100 µM (inactive) | > 100 µM (inactive) | > 100 µM (inactive) | 37.8 µM (inactive) |
| CC(CO)CCC(O)C(C)(O)C1CCC2(O)C3=CC(=O)C4CC(O)C(O)CC4(C)C3CCC12C (stereo not drawn) | > 100 µM (inactive) | > 100 µM (inactive) | > 100 µM (inactive) |  | > 100 µM (inactive) | > 100 µM (inactive) | > 100 µM (inactive) | > 100 µM (inactive) | > 100 µM (inactive) | > 100 µM (inactive) | > 100 µM (inactive) | > 100 µM (inactive) | > 100 µM (inactive) | > 100 µM (inactive) | > 100 µM (inactive) | > 100 µM (inactive) | > 100 µM (inactive) | > 100 µM (inactive) | > 100 µM (inactive) | > 100 µM (inactive) |
| CN1C(=O)C(O)CC1c1ccccc1C(F)(F)F (stereo not drawn) | > 100 µM (inactive) | > 100 µM (inactive) | > 100 µM (inactive) | > 100 µM (inactive) | > 100 µM (inactive) | > 100 µM (inactive) | > 100 µM (inactive) | > 100 µM (inactive) | > 100 µM (inactive) | > 100 µM (inactive) | > 100 µM (inactive) | > 100 µM (inactive) | > 100 µM (inactive) | > 100 µM (inactive) | > 100 µM (inactive) | > 100 µM (inactive) | > 100 µM (inactive) | > 100 µM (inactive) | > 100 µM (inactive) |  |
| CCN(CC)C(=S)SC(C(=O)Nc1nnc(-c2ccc(Cl)cc2)o1)c1ccccc1 (stereo not drawn) | 13 µM (inactive) | 10.8 µM (inactive) | 22.1 µM (inactive) | 2.7 µM (inactive) | 6.41 µM (inactive) | 26 µM (inactive) | 3.48 µM (inactive) | 17.9 µM (inactive) | 11.7 µM (inactive) | 17.9 µM (inactive) | 8.47 µM (inactive) | 20.6 µM (inactive) |  | 4.85 µM (inactive) | 10 µM (inactive) | 4.06 µM (inactive) | 3.41 µM (inactive) | 3.46 µM (inactive) | 14.2 µM (inactive) | 12.8 µM (inactive) |
| CC#CC(O)(C(=O)OC1CC2CCC(C1)N2C)C1CCCC1 (stereo not drawn) | > 100 µM (inactive) | > 100 µM (inactive) | > 100 µM (inactive) | > 100 µM (inactive) | > 100 µM (inactive) | > 100 µM (inactive) | > 100 µM (inactive) | > 100 µM (inactive) | > 100 µM (inactive) | > 100 µM (inactive) | > 100 µM (inactive) | > 100 µM (inactive) | > 100 µM (inactive) | > 100 µM (inactive) | > 100 µM (inactive) | > 100 µM (inactive) | > 100 µM (inactive) | > 100 µM (inactive) | > 100 µM (inactive) | > 100 µM (inactive) |
| CO[C@H]1O[C@@H]2CO[C@@H](c3ccccc3)O[C@H]2C[C@]12CCC/C=C\CO2 | 37.7 µM (inactive) | 15.8 µM (inactive) | 21.1 µM (inactive) |  | 60.1 µM (inactive) | 16.7 µM (inactive) | 12.9 µM (inactive) | 33.6 µM (inactive) | 25.9 µM (inactive) | 29.5 µM (inactive) | 11.6 µM (inactive) | 15.9 µM (inactive) | 18.3 µM (inactive) | 15.9 µM (inactive) | 12.6 µM (inactive) | 13.9 µM (inactive) | 18.7 µM (inactive) | 12.7 µM (inactive) | 12.2 µM (inactive) | 13.9 µM (inactive) |
| COC1C(O)CC(OC2C(C)OC(Oc3cc(O)c4c(O)c5c(cc4c3)C[C@@H]([C@H](OC)C(=O)[C@@H](O)[C@@H](C)O)[C@H](OC3CC(OC4CC(OC6CC(C)(O)C(O)C(C)O6)C(O)C(C)O4)C(O)C(C)O3)C5=O)CC2OC(C)=O)OC1C (stereo partly drawn) | > 100 µM (inactive) |  | 88.1 µM (inactive) | 41.1 µM (inactive) | > 100 µM (inactive) | 91.6 µM (inactive) | 17.5 µM (inactive) | 63.1 µM (inactive) | > 100 µM (inactive) | 88.1 µM (inactive) | > 100 µM (inactive) | 79.3 µM (inactive) | 29 µM (inactive) | > 100 µM (inactive) | 48.1 µM (inactive) | 70.8 µM (inactive) | 97.9 µM (inactive) | 59.2 µM (inactive) | 34 µM (inactive) | 40.1 µM (inactive) |
| COc1cccc2c1C(=O)c1c(O)c3c(c(O)c1C2=O)C[C@@](O)(C(=O)CO)C[C@@H]3OC1CC(N)C(OC)C(C)O1 (stereo partly drawn) | 0.0767 µM (active) | 0.0975 µM (active) | 0.0605 µM (active) | 0.108 µM (active) | 0.189 µM (active) | 0.474 µM (active) | < 0.01 µM (active) | 0.0269 µM (active) | 0.054 µM (active) | 0.0968 µM (active) | 0.522 µM (active) | 0.161 µM (active) | 0.0553 µM (active) | < 0.0163 µM (active) | 0.0224 µM (active) | 0.209 µM (active) | 0.139 µM (active) | 0.0282 µM (active) | 0.267 µM (active) | 0.0284 µM (active) |
| CC(C)(C)OC(=O)[C@H]1CCC(=S)N1Cc1ccccc1 | > 100 µM (inactive) | > 100 µM (inactive) | > 100 µM (inactive) | > 100 µM (inactive) | > 100 µM (inactive) | > 100 µM (inactive) | > 100 µM (inactive) | > 100 µM (inactive) | > 100 µM (inactive) | > 100 µM (inactive) | > 100 µM (inactive) | > 100 µM (inactive) | > 100 µM (inactive) | > 100 µM (inactive) | > 100 µM (inactive) | > 100 µM (inactive) | > 100 µM (inactive) | > 100 µM (inactive) | > 100 µM (inactive) |  |
| CC(=O)Oc1c2ccsc2c(OC(C)=O)c2ccsc12 | 2.86 µM (inactive) | 0.269 µM (active) | 0.269 µM (active) | 1.79 µM (inactive) | 2.47 µM (inactive) | 1.29 µM (inactive) | 0.955 µM (active) | 0.224 µM (active) | 2.11 µM (inactive) | 1.67 µM (inactive) | 1.5 µM (inactive) | 0.138 µM (active) | 2.54 µM (inactive) | 0.647 µM (active) | 0.869 µM (active) | 1.76 µM (inactive) | 1.8 µM (inactive) | 0.764 µM (active) | 0.179 µM (active) |  |
| O=C(NCCc1ccc(F)cc1)c1cc(/C=C/c2cc(O)ccc2O)ccc1O | 13 µM (inactive) | 3.67 µM (inactive) | 3.28 µM (inactive) | 2.31 µM (inactive) | 6.64 µM (inactive) | 3.3 µM (inactive) | 2.48 µM (inactive) | 11.1 µM (inactive) | 3.03 µM (inactive) | 6.05 µM (inactive) | 2.42 µM (inactive) | 2.67 µM (inactive) | 8.59 µM (inactive) | 2.38 µM (inactive) | 2.1 µM (inactive) | 3.14 µM (inactive) | 7.23 µM (inactive) | 1.95 µM (inactive) | 3.78 µM (inactive) | 3.03 µM (inactive) |
